Measured values taken from PubChem BioAssay (NCI).
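Briefly, cells in 96-well plates were exposed to five compound concentrations for 48 h, and endpoints were estimated by linear interpolation. TGI: concentration producing complete growth inhibition.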

How the values were obtained:
Test in all cases: inhibition of tumour cell growth, NCI panel, 48 h
[1] = system: 786-0 renal
[2] = system: A498 renal
[3] = system: A549 NSCLC
[4] = system: ACHN renal
[5] = system: CAKI-1 renal
[6] = system: CCRF-CEM leukemia
[7] = system: COLO 205 colon
[8] = system: DLD-1 colon
[9] = system: DMS 114 small cell lung
[10] = system: DMS 273 small cell lung
[11] = system: EKVX NSCLC
[12] = system: HCC-2998 colon
[13] = system: HCT-15 colon
[14] = system: HL-60(TB) leukemia
[15] = system: HOP-18 NSCLC
[16] = system: HOP-62 NSCLC
[17] = system: HOP-92 NSCLC
[18] = system: HT29 colon
[19] = system: IGROV1 ovarian
[20] = system: K-562 leukemia
[21] = system: KM12 colon
[22] = system: KM20L2 colon
[23] = system: LOX IMVI melanoma
[24] = system: LXFL 529 NSCLC
[25] = system: M14 melanoma
[26] = system: M19-MEL melanoma
[27] = system: MALME-3M melanoma
[28] = system: MOLT-4 leukemia
[29] = system: NCI-H226 lung
[30] = system: NCI-H23 lung
[31] = system: NCI-H460 lung
[32] = system: NCI-H522 lung
[33] = system: OVCAR-3 ovarian
[34] = system: OVCAR-4 ovarian
[35] = system: OVCAR-5 ovarian
[36] = system: OVCAR-8 ovarian
[37] = system: RPMI-8226 leukemia
[38] = system: RXF 393 renal
[39] = system: SF-268 CNS
[40] = system: SF-295 CNS
[41] = system: SF-539 CNS
[42] = system: SK-MEL-2 melanoma
[43] = system: SK-MEL-28 melanoma
[44] = system: SK-MEL-5 melanoma
[45] = system: SK-OV-3 ovarian
[46] = system: SN12C renal
[47] = system: SNB-19 CNS
[48] = system: SNB-75 CNS
[49] = system: SR leukemia
[50] = system: SW-620 colon
[51] = system: TK-10 renal
[52] = system: U251 CNS
[53] = system: UACC-257 melanoma
[54] = system: UACC-62 melanoma
[55] = system: UO-31 renal
[56] = system: XF 498 CNS
[57] = system: HCT-116 colon
[58] = system: SNB-78 CNS
[59] = system: RXF-631 renal

Measured: TGI

CCCCOC(=O)C1C(c2ccc(Cl)cc2)NC(c2ccc(Cl)cc2)C(C(=O)OCCCC)S1(=O)=O (configuration not stated)
> 100 µM: [1] | [2] | [3] | [4] | [5] | [6] | [7] | [8] | [9] | [10] | [11] | [12] | [13] | [14] | [15] | [16] | [17] | [18] | [19] | [20] | [21] | [22] | [23] | [24] | [25] | [26] | [27] | [28] | [29] | [30] | [31] | [32] | [33] | [34] | [35] | [36] | [37] | [38] | [39] | [40] | [41] | [42] | [43] | [44] | [45] | [46] | [47] | [48] | [49] | [50] | [51] | [52] | [53] | [54] | [55] | [56]

CSc1nc2c(nc(C)c(=O)n2C2OCC(OC(C)=O)C(OC(C)=O)C2OC(C)=O)c(=O)[nH]1 (configuration not stated)
> 100 µM: [1] | [2] | [3] | [4] | [5] | [6] | [7] | [8] | [9] | [10] | [11] | [12] | [57] | [13] | [14] | [16] | [17] | [18] | [19] | [20] | [21] | [22] | [23] | [24] | [25] | [26] | [27] | [28] | [30] | [31] | [32] | [33] | [34] | [35] | [36] | [37] | [38] | [39] | [40] | [42] | [43] | [44] | [45] | [46] | [47] | [48] | [49] | [50] | [51] | [52] | [53] | [54] | [55] | [56]

O=C1c2ccccc2C(=O)C1(Cl)C1(S(=O)(=O)O)c2ccccc2-c2ccccc21
> 100 µM: [1] | [2] | [3] | [4] | [5] | [6] | [7] | [8] | [9] | [10] | [12] | [57] | [13] | [14] | [15] | [16] | [17] | [18] | [19] | [20] | [21] | [22] | [23] | [24] | [25] | [26] | [27] | [28] | [29] | [30] | [31] | [32] | [33] | [34] | [35] | [36] | [37] | [38] | [39] | [40] | [41] | [43] | [44] | [45] | [46] | [48] | [58] | [49] | [50] | [51] | [52] | [53] | [54] | [55] | [56]

C=C(C=O)[C@@H]1C2OC(=O)C(=C)[C@@H]2CC(O)[C@@]1(C)CC (some centres not stated)
21.7 µM: [42]
4.52 µM: [32]
45.8 µM: [55]
8.23 µM: [24]
37.2 µM: [21]
6.44 µM: [6]
5.92 µM: [14]
14.3 µM: [26]
13.9 µM: [54]
19.8 µM: [44]
36.8 µM: [9]
12.3 µM: [49]
32 µM: [35]
39.5 µM: [2]
24.9 µM: [22] | [58]
24 µM: [5]
20.4 µM: [36]
19.1 µM: [25]
41.3 µM: [15]
10.2 µM: [1]
51.1 µM: [11]
59.8 µM: [29]
10 µM: [37]
24.7 µM: [13]
71.4 µM: [39]
11.8 µM: [50]
13.3 µM: [30]
18.7 µM: [27]
99.9 µM: [45]
21.5 µM: [18]
> 89.7 µM: [47]
51.4 µM: [31]
32.4 µM: [52]
23.6 µM: [41]
> 30.2 µM: [34]
4.19 µM: [17]
12.5 µM: [43]
26.9 µM: [53]
10.3 µM: [38]
37.7 µM: [59]
11.7 µM: [7]
22.6 µM: [20]
9.7 µM: [8]
14.5 µM: [57]
> 100 µM: [3] | [16] | [48]
21.3 µM: [33]
27.1 µM: [4]
32.6 µM: [46]
57.2 µM: [40]
9.08 µM: [28]
> 28.7 µM: [19]
29.9 µM: [51]
31.1 µM: [12]
34.7 µM: [23]
